Earlier results, collected in US20100228037A1, “Process for Preparing Allylmercaptocaptopril (Cpssa) and Related Asymmetrical Disulfides” (Yeda Research And Development Co. Ltd. at the Weizmann …, priority 2006, published 2010).
Read-outs that look alike come from different tables or passages of the source.

What was measured:
[1] = blood or plasma of mammals
[2] = in vitro, human blood
[3] = in vivo, rats
[4] = rats, immediately after administration

Structure (SMILES) | stability in blood or plasma [1] | antihypertensive properties compared with unmodified captopril (rats; rat, in vivo) | blood pressure (rats; [4]) | serum level of insulin (rats; [4]) | serum level of triglycerides (rats; [4]) | disintegration in blood after administration [2] | disintegration in blood after administration [3]
C=CCSSC[C@H](C)C(=O)N1CCC[C@H]1C(=O)O [CPSSA, allylmercaptocaptopril] | stable in blood or plasma of mammals | improved antihypertensive properties | significantly decreased blood pressure | to near normal levels | to near normal levels | – | –
C=CCS[S+]([O-])CC=C (stereo not shown) [allicin] | – | – | – | – | – | disintegrates in the blood a few minutes post its administration | disintegrates in the blood a few minutes post its administration
